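In this assay, cells in 96-well plates receive the compound at five concentrations for 48 hours. Endpoints are linearly interpolated between the surrounding concentrations. Abbreviation: GI50, concentration required for 50% inhibition of growth.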 The source made the active and inactive calls. Rule as the data show it: active = GI50 up to about 1.1 µM and inactive = higher.

Holding throughout (assay): NCI tumour cell line growth inhibition, 48 h
Experiment [1] has as its system HCC 2998.
Experiment [2] relates to NCI-H226.
In experiment [3] the test system is 786-0.
Experiment [4] deals with MDA-N.
For experiment [5], the system named is MCF7.
Experiment [6] relates to RXF 393.
For experiment [7], the system named is OVCAR-3.
Experiment [8] concerns NCI-H23.
The subject of experiment [9] is EKVX.
For experiment [10], the system named is SF-295.
Experiment [11] concerns SK-MEL-2.
The test system of experiment [12] is OVCAR-8.
In experiment [13] the test system is SNB-75.
Experiment [14] relates to SF-268.
Experiment [15] concerns MDA-MB-435.
In experiment [16] the test system is UACC-257.
The test system of experiment [17] is K562.
The subject of experiment [18] is SN12C.
In experiment [19] the test system is BT-549.

Turning to `N#CCN(Cc1ccccc1)[C@H]1CCC[C@]1(O)/C=C/c1ccc2c(c1)OCO2`, the GI50 in experiment [1] is 18.4 µM (inactive); in experiment [2], 18.4 µM (inactive); in experiment [3], 17.4 µM (inactive); in experiment [4] it was 17.6 µM (inactive); in [5], 18.7 µM (inactive); in [6], 23.6 µM (inactive). For the same molecule, the GI50 is 5.41 µM (inactive) in [7]; 24.9 µM (inactive) in experiment [8]; 76.9 µM (inactive) in experiment [9]; 16.4 µM (inactive) in [10]; 20 µM (inactive) in [11]; 17.1 µM (inactive) in experiment [12]. For the same molecule, the GI50 was 28.4 µM (inactive) in [13]; 34.4 µM (inactive) in experiment [14]; 20 µM (inactive) in [15]; 22.7 µM (inactive) in experiment [16]; 24.5 µM (inactive) in [17].
On to `CCc1nnc(S)n1/N=C/c1ccc(-c2ccc([N+](=O)[O-])cc2)o1`, for which the GI50 in [1], in experiment [2], in [3], in [18], in [7] and in [8] was > 100 µM (inactive) throughout. In addition, the GI50 in experiment [10], in experiment [11], in [12], in [13], in [14] and in experiment [16] was > 100 µM (inactive) each time. Also, in [17], the GI50 is > 100 µM (inactive).
Regarding `CCC(=O)Nc1ccc(/N=N/N(C)C)cc1`, the GI50 was 1.66 µM (inactive) in [1]; > 100 µM (inactive) in [2]; > 100 µM (inactive) in experiment [19]; > 100 µM (inactive) in [3]; > 100 µM (inactive) in experiment [5]; > 100 µM (inactive) in experiment [18]. Moreover, the GI50 is > 100 µM (inactive) in [6]; 7.26 µM (inactive) in experiment [8]; > 100 µM (inactive) in experiment [9]; > 100 µM (inactive) in experiment [11]; > 100 µM (inactive) in experiment [12]; > 100 µM (inactive) in experiment [13]. For the same molecule, the GI50 was > 100 µM (inactive) in experiment [14], > 100 µM (inactive) in [15], > 100 µM (inactive) in experiment [16] and 50.2 µM (inactive) in experiment [17].
For `CC(=O)N1c2ccccc2C23CCN(C)CC4C(C)OCC(C4CC2=O)C13` (stereo not given), the GI50 in [1], in experiment [2], in experiment [19], in [3], in experiment [5] and in [18] was > 100 µM (inactive) throughout. In addition, the GI50 in experiment [6], in experiment [8], in experiment [9], in experiment [10], in [11] and in experiment [12] was > 100 µM (inactive) in each case. The GI50 in [13], in experiment [14], in experiment [15], in experiment [16] and in [17] was > 100 µM (inactive) each time.
For the molecule `Clc1ccc(-c2ccc(-c3nn4c(CNc5ccccc5)nnc4s3)o2)c(Cl)c1`, the GI50 in experiment [2] was 97.3 µM (inactive); in [19], > 100 µM (inactive); in experiment [3] it was > 100 µM (inactive); in experiment [4], 45.1 µM (inactive); in experiment [18], > 100 µM (inactive); in [6] it was 33.5 µM (inactive). The GI50 is 45.2 µM (inactive) in [7]; 53.6 µM (inactive) in experiment [8]; 41.5 µM (inactive) in experiment [9]; 60.1 µM (inactive) in experiment [10]; 90.4 µM (inactive) in experiment [11]; 68.7 µM (inactive) in [12]. The GI50 in experiment [13] was 50.7 µM (inactive); in [14], > 100 µM (inactive); in experiment [15], 58.1 µM (inactive); in [16], 53.1 µM (inactive); in experiment [17], 43.7 µM (inactive).
`CC/C=C/C(=O)CC(O)(C(F)(F)F)C(F)(F)F`: the GI50 in [1], in [2], in experiment [3], in experiment [5], in [18] and in experiment [6] was > 100 µM (inactive) throughout. The GI50 in experiment [8], in experiment [9], in [10], in experiment [12], in experiment [13] and in experiment [14] was > 100 µM (inactive) throughout. Moreover, the GI50 in experiment [15] and in experiment [16] was > 100 µM (inactive) in each case.
Take `CC(=O)NNC1=NN(C(C)=O)C2(S1)C(=O)Nc1ccc(Br)cc12` (stereo not given): the GI50 in [1] is > 100 µM (inactive); in experiment [2], > 100 µM (inactive); in experiment [19], 59.6 µM (inactive); in experiment [3], > 100 µM (inactive); in experiment [5], > 100 µM (inactive); in experiment [18] it was > 100 µM (inactive). Moreover, the GI50 in experiment [6], in experiment [7], in experiment [8], in experiment [9], in experiment [10] and in experiment [11] was > 100 µM (inactive) each time. Moreover, the GI50 in [12], in [13], in experiment [14], in [15], in [16] and in experiment [17] was > 100 µM (inactive) throughout.
Consider `CC(=O)C1=C(C)O[C@@H]2O[C@H](COCc3ccccc3)[C@@H](OCc3ccccc3)[C@H](O)[C@@H]2S1`, for which the GI50 was 18.8 µM (inactive) in [2]; 21.8 µM (inactive) in experiment [19]; 25.1 µM (inactive) in experiment [3]; 22.6 µM (inactive) in experiment [4]; 19.2 µM (inactive) in [18]; 13.8 µM (inactive) in experiment [6]. The GI50 in experiment [7] is 15.2 µM (inactive); in experiment [8], 20.4 µM (inactive); in experiment [9], 25.1 µM (inactive); in [10], 13.8 µM (inactive); in experiment [11], 20.4 µM (inactive); in experiment [12] it was 23 µM (inactive). Further, the GI50 in [13] was 23.3 µM (inactive); in [14] it was 15.2 µM (inactive); in experiment [15], 19 µM (inactive); in experiment [16] it was 18.3 µM (inactive); in experiment [17], 19.7 µM (inactive).
Regarding `CNC(=O)/C(C#N)=C(\N)N1CCCC1`, the GI50 in experiment [1], in experiment [2], in experiment [3], in experiment [4], in experiment [18] and in experiment [6] was > 100 µM (inactive) each time. Also, the GI50 in [7], in experiment [8], in [9], in [11], in experiment [12] and in experiment [14] was > 100 µM (inactive) each time. Also, the GI50 in [15] and in experiment [17] was > 100 µM (inactive) each time.
In the case of `COc1cc2cc(C(=O)N3CC(CCl)c4ccc(O)cc43)[nH]c2c(OC)c1OC` (stereo not given), the GI50 in [1] is 0.000593 µM (active); in experiment [2] it was 0.0168 µM (active); in [3] it was 0.00012 µM (active); in [4], < 0.01 µM (active); in [5], < 0.0001 µM (active); in [18], 0.00441 µM (active). The GI50 was < 0.0001 µM (active) in [6]; 0.0031 µM (active) in [7]; 0.00199 µM (active) in experiment [8]; 0.0513 µM (active) in experiment [9]; 0.000285 µM (active) in experiment [10]; 0.00169 µM (active) in [11]. The GI50 in experiment [12] was 0.00132 µM (active); in experiment [13], 0.00628 µM (active); in experiment [14], 0.00596 µM (active); in experiment [15], 0.00263 µM (active); in experiment [16] it was 0.0149 µM (active); in [17], 0.000282 µM (active).
For `COC1=CC(=O)C2C(C1=O)[C@@H]1c3ccccc3C[C@H]21` (stereo not given in full), the GI50 in [1], in experiment [3], in experiment [6], in experiment [7], in experiment [8] and in experiment [9] was > 100 µM (inactive) in each case. For the same molecule, the GI50 in experiment [10] was > 100 µM (inactive); in experiment [11] it was > 100 µM (inactive); in [12], 85.3 µM (inactive); in [13], 89.9 µM (inactive); in experiment [14], > 100 µM (inactive); in experiment [16], > 100 µM (inactive). In addition, in experiment [17], the GI50 is > 100 µM (inactive).
Take `CC(C)=NOC(=O)Nc1cccc2c1OCO2`: the GI50 in experiment [1], in [2], in experiment [3], in [5], in [18] and in experiment [6] was > 100 µM (inactive) in each case. In addition, the GI50 in experiment [7], in experiment [8], in [9], in experiment [10], in experiment [11] and in [12] was > 100 µM (inactive) each time. Further, the GI50 in experiment [13], in [14], in [15] and in [16] was > 100 µM (inactive) throughout.

The values above are taken from ChEMBL document CHEMBL1201862, “PubChem BioAssay data set” (2004).
